Experimental data: US20180326022A1, “COMPOSITIONS AND METHODS FOR IMPROVING HEART FUNCTION AND TREATING HEART FAILURE” (The Trustees of the University of Pennsylvania, priority 2017, published 2018)

Tests used:
[1] = test system: detyrosinated tubulin; assay: Western blotting of cardiomyocyte lysates (TTL, α-, detyr-, tyr-tubulin); assay type: cell-based; conditions: rat cardiomyocytes; PTL treatment; shTTL; short term EpoY
Method: (§1) Viral constructs were permitted to express for 24-72 hours with Moi=100-200. Parthenolide (Fisher Scientific NC9013142) treatment was carried out at room temperature for 2 hours at 10 μM. All experiments were performed within 48 hours of isolation, except those involving shTTL, which were allowed 72 hours to improve knockdown efficiency.
For analysis of proteins expression levels quantitative Western blots were performed using infrared fluorescence imaging on an Odyssey Imager (LI-COR). Cell homogenates were prepared in ice-cold IGEPAL lysis buffer. After 1 freezing cycle lysates were spun at 18,000×g for 5 min. Aliquots of supernatants were mixed with 4× sample buffer (LI-COR, 928-40004) containing 10% BME, boiled for 6 min., and resolved on sodium dodecyl sulfate (SDS)-polyacrylamide gel electrophoresis Tris-glycine gels (Bio-Rad). Proteins were transferred to a membrane on Mini Trans-Blot Cell (Bio-Rad), blocked 1 h in Odyssey Blocking Buffer (TBS) (LI-COR, 927-50000), and probed with the corresponding primary antibody (see list below) for 2 h at room temperature. Membranes were then rinsed with TBST 4 times for 5 min, and incubated with secondary antibodies (below) for 1.5 h at room temperature. Membranes were rinsed again with TBST and then imaged on Odyssey Imager. Image analysis was performed using Image Studio Lite software (LI-COR). Fluorescent band intensity was always normalized to GAPDH loading control. Analysis of human tissue samples for levels of detyrosinated tubulin was performed blinded to the experimental groups.

[2] = test system: microtubules in contracting cardiomyocytes; assay: Microtubule buckling in contracting cardiomyocytes (Airyscan imaging); assay type: cell-based, rat
Method: Confocal imaging was carried out on a Zeiss 780 laser scanning confocal scan head operating on an Axiovert Z1 inverted microscope equipped with a 40× oil 1.4 NA objective. High-speed super resolution imaging was carried out on a Zeiss 880 Airyscan confocal with a 63×1.4 oil NA objective (FIG. 8A-FIG. 8E, Airyscan application note can be found at http://www.zeiss.com/microscopy/enus/products/confocal-microscopes/Ism-880-with-airyscan-.html#downloads). Image analysis was performed using ZEN Black software for Airyscan processing, which involves signal integration from the 32 separate sub-resolution detectors in the Airyscan detector and subsequent deconvolution of this integrated signal (FIG. 8A-FIG. 8E). Additional signal processing was performed in Image J (NIH). For calculating the microtubule fraction of cell area (FIG. 2B-FIG. 2C), image analysis was performed blinded to the experimental treatment groups. A 1.5 μm max intensity projection was produced from 3 0.5 μm confocal z-sections. […] From the resulting binary images (FIG. 9B), the microtubule positive fraction of the total cell area was calculated for alpha and detyrosinated tubulin (FIG. 2C).
Analysis of buckling parameters was performed on 1-8 microtubules per image series. Analysis was done blind to the experimental condition and, where possible, followed a microtubule selected from resting frames to avoid biased selection of microtubules that buckled during contraction. A centerline was drawn along the axis of the microtubule and the maximum distance to the edge of the microtubule was recorded as the amplitude (FIG. 1G, red). MTs were further analyzed by recording the distance between 2 consecutive inflection points (FIG. 1G, yellow) as half the wavelength. This short metric was selected instead of full wavelength to maximize inclusion of microtubules for which labeling or z-displacement prevented inclusion of a full cycle in the image.

[3] = test system: WT myocytes; assay: AFM viscoelasticity, WT mouse myocytes; assay type: cell-based; conditions: WT + PTL
Method: Animal care and procedures were approved and performed in accordance with the standards set forth by the University of Pennsylvania Institutional Animal Care and Use Committee and the Guide for the Care and Use of Laboratory Animals published by the US National Institutes of Health. Desmin knockout mice and WT littermates were provided by Dr. Robert Bloch and have been previously characterized (36). Experiments were performed blinded to genotype.
as §1
The elastic modulus of isolated cardiomyocytes was measured using AFM indentation. Optical microscopy and AFM were performed simultaneously using an MFP3D AFM (Asylum Research) combined with an inverted Nikon TE-2000U microscope equipped with a Nikon 100×, 1.49 NA objective. TTL expression was determined by dsRED fluorescence captured via 532 nm laser excitation (CrystaLaser) and a CCD camera (Cascade-512B, Photometrics) at 900 ms exposure time controlled through the NIS Elements software package. […] Modulus characterization of myocytes was performed using 4.26 μm radius (R below) SiO2 microparticle epoxied to SiN cantilevers with nominal spring constant 0.03 N/m (CP-PNPS-SiO-A, Nano And More, USA). Cantilever spring constants were manually calibrated in air by thermal vibrations using the MFP3D prior to each experiment using a clean glass substrate. Inverse optical lever sensitivity was determined in myocyte buffer solution prior to each round of measurements.
E is the elastic modulus, υ, is the cell Poisson ratio and δ is the indentation depth. Transverse compression of the cardiomyocyte is performed over a range of indentation speeds and the indentation speed is divided by the total indentation depth to obtain an effective indentation rate, f. […]

[4] = test system: cardiac and skeletal muscle; conditions: 10 μM; refs (13), (8); cited from earlier work

## C=C1C(=O)O[C@H]2[C@H]1CC/C(C)=C/CC[C@@]1(C)O[C@@H]21 [PTL, 4,5-epoxygermacra-1(10),11(13)-dien-12,6-olactone]
[1]
  alpha / total tubulin levels (western blot): no significant change
  detyrosinated tubulin (western blot): significant drop
[2]; amplitude change on same followed MT between rest and contraction
  Amp (Δ): 0.078
[2]; buckling amplitude, contracted cardiomyocytes
  Amp Contract: 0.212
[2]; buckling amplitude, resting cardiomyocytes
  Amp Rest: 0.134
[2]; number of buckled microtubules, N microtubules 24 (Parth) and 62 (TTL)
  N Buckled: 9
[2]; vs control myocytes
  occurrence of buckling: fell significantly
[3]
  E1 (Pa): 533.11 Pa
  E2 (Pa): 627.4 Pa
  η (Pa*s): 32.9 Pa*s
[4]
  effect on microtubules: suppresses detyrosination
